In patent US20230374015A1, “INHIBITORS OF FIBROBLAST GROWTH FACTOR RECEPTOR KINASES” (Kinnate Biopharma Inc., priority 2020, published 2023) one finds IC50 data, which are given here for 24 compounds.

Where a name gives a salt, the structure may show the parent alone. Some results are limits rather than exact numbers.

The assay concerns the target FGFR2 (Homo sapiens, UniProt P21802). The assay can be described thus: FGFR2 Kinase Protocol - Condition 2 (Reaction Biology HotSpot radiometric kinase assay, no preincubation). Format: biochemical. As to conditions: poly[Glu:Tyr] (4:1) 0.2 mg/ml, ATP 100 microM, 2 hr room temperature. A digest of the protocol:
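Radiometric HotSpot format: FGFR2 (wildtype or V564F) with poly[Glu:Tyr] (4:1) at 0.2 mg/ml in HEPES pH 7.5 buffer with 1% DMSO; ATP plus [γ33P]ATP at 100 µM total, added without preincubation. Reactions ran 2 hr at room temperature, then filter-bound. IC50 from 10-dose, 3-fold series versus DMSO control.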

Sequence of FGFR2 (P21802 22-821): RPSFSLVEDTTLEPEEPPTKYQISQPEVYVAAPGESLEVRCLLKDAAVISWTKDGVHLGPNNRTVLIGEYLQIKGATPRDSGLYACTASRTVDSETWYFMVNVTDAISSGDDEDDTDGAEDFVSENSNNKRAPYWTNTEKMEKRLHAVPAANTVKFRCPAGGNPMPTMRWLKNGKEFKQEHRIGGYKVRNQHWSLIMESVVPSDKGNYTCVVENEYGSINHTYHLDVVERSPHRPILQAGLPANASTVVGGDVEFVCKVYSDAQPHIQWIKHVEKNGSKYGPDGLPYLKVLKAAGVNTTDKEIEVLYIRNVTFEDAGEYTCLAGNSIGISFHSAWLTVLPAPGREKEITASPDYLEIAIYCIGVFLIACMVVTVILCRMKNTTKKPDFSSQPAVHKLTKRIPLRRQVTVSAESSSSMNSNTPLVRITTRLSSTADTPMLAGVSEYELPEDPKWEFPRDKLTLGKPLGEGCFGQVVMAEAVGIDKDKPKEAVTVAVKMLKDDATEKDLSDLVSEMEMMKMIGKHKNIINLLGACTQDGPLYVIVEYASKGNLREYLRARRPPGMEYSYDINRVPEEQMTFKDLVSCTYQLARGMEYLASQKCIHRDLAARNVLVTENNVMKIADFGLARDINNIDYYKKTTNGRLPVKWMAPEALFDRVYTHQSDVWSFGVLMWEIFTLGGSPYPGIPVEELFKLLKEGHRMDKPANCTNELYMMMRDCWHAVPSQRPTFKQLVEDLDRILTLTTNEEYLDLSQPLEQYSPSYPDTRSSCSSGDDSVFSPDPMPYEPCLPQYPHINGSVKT

As usually defined, the IC50 is the concentration that inhibits the measured activity by half. Higher therefore signals a need for much substance. Take `C=CC(=O)N1CC[C@H](n2nc(C#Cc3cc4ncn(C5CC5)c4cc3F)c3c(N)nccc32)C1` [Example 149, 1-[(3S)-3-{4-Amino-3-[2-(1-cyclopropyl-6-fluoro-1,3-benzodiazol-5-yl)ethynyl]pyrazolo[4,3-c]pyridin-1-yl}pyrrolidin-1-yl]prop-2-en-1-one]: the IC50 is ≤ 0.1 µM.
Turning to `C=CC(=O)N1CC[C@H](n2nc(C#Cc3cc4ncn(C5CC5)c4cc3F)c3c(N)ncnc32)C1` [Example 146, (S)-1-(3-(4-Amino-3-((1-cyclopropyl-6-fluoro-1H-benzo[d]imidazol-5-yl)ethynyl)-1H-pyrazolo[3,4-d]pyrimidin-1-yl)pyrrolidin-1-yl)prop-2-en-1-one], the half-inhibitory concentration (IC50) was ≤ 0.1 µM.
`C=CC(=O)N1C[C@@H](n2cc(C#Cc3cc4ncn(CC)c4cc3F)c3c(N)ncnc32)C[C@@H]1COC` [Example 80, 1-[(2R,4S)-4-[4-Amino-5-[2-(1-ethyl-6-fluoro-1,3-benzodiazol-5-yl)ethynyl]pyrrolo[2,3-d]pyrimidin-7-yl]-2-(methoxymethyl)pyrrolidin-1-yl]prop-2-en-1-one]: the concentration for half-maximal inhibition (IC50) was ≤ 0.1 µM.
Regarding `C=CC(=O)N1C[C@@H](n2nc(C#Cc3cc4ncn(C)c4cc3F)c3c(N)ncnc32)C[C@@H]1COC(F)(F)F` [Example 57, 1-[(2R,4S)-4-[4-Amino-3-[2-(6-fluoro-1-methyl-1,3-benzodiazol-5-yl)ethynyl]pyrazolo[3,4-d]pyrimidin-1-yl]-2-[(trifluoromethoxy)methyl]pyrrolidin-1-yl]prop-2-en-1-one], the half-inhibitory concentration (IC50) was ≤ 0.1 µM.
`C=CC(=O)N1C[C@@H](n2cc(C#Cc3c(F)cc4c(ncn4CC)c3F)c3c(N)ncnc32)C[C@@H]1COC` [Example 87, 1-[(2R,4S)-4-[4-Amino-5-[2-(1-ethyl-4,6-difluoro-1,3-benzodiazol-5-yl)ethynyl]pyrrolo[2,3-d]pyrimidin-7-yl]-2-(methoxymethyl)pyrrolidin-1-yl]prop-2-en-1-one]: the half-maximal inhibitory concentration (IC50) is ≤ 0.1 µM.
For the compound `C=CC(=O)N1CC[C@H](n2nc(C#Cc3cc4ncn(C)c4c(F)c3Cl)c3c(N)nccc32)C1` [Example 148, 1-[(3S)-3-{4-Amino-3-[2-(6-chloro-7-fluoro-1-methyl-1,3-benzodiazol-5-yl)ethynyl]pyrazolo[4,3-c]pyridin-1-yl}pyrrolidin-1-yl]prop-2-en-1-one], the half-maximal inhibitory concentration (IC50) is ≤ 0.1 µM.
To `C=CC(=O)N1C[C@@H](n2cc(C#Cc3c(Cl)cc4c(nc(C)n4C)c3F)c3c(N)ncnc32)C[C@@H]1COC` [Example 113, 1-((2R,4S)-4-(4-Amino-5-((6-chloro-4-fluoro-1,2-dimethyl-1H-benzo[d]imidazol-5-yl)ethynyl)-7H-pyrrolo[2,3-d]pyrimidin-7-yl)-2-(methoxymethyl)pyrrolidin-1-yl)prop-2-en-1-one] belongs ≤ 0.1 µM; to `C=CC(=O)N1C[C@@H](n2cc(C#Cc3c(F)cc4c(ncn4C4CC4)c3F)c3c(N)ncnc32)C[C@@H]1COC` [Example 75, 1-[(2R,4S)-4-[4-Amino-5-[2-(1-cyclopropyl-4,6-difluoro-1,3-benzodiazol-5-yl)ethynyl]pyrrolo[2,3-d]pyrimidin-7-yl]-2-(methoxymethyl)pyrrolidin-1-yl]prop-2-en-1-one], ≤ 0.1 µM; to `C=CC(=O)N1CC[C@H](c2nc(C#Cc3cc4ncn(C5CC5)c4cc3F)c3c(N)nccn23)C1` [Example 201, 1-[(3 S)-3-{8-Amino-1-[2-(1-cyclopropyl-6-fluoro-1,3-benzodiazol-5-yl)ethynyl]imidazo[1,5-a]pyrazin-3-yl}pyrrolidin-1-yl]prop-2-en-1-one], 0.1 to 1 µM.
As for `C=CC(=O)N1C[C@@H](n2nc(C#Cc3c(Cl)cc4c(ncn4C)c3F)c3c(N)ncnc32)C[C@@H]1COC` [Example 104, 1-[(2R,4S)-4-[4-Amino-3-[2-(6-chloro-4-fluoro-1-methyl-1,3-benzodiazol-5-yl)ethynyl]pyrazolo[3,4-d]pyrimidin-1-yl]-2-(methoxymethyl)pyrrolidin-1-yl]prop-2-en-1-one], the IC50 was ≤ 0.1 µM.
With `C=CC(=O)N1C[C@@H](n2nc(C#Cc3c(F)cc4c(ncn4C)c3F)c3c(N)ncnc32)C[C@@H]1COC(F)(F)F` [Example 54, 1-[(2R,4S)-4-[4-Amino-3-[2-(4,6-difluoro-1-methyl-1,3-benzodiazol-5-yl)ethynyl]pyrazolo[3,4-d]pyrimidin-1-yl]-2-[(trifluoromethoxy)methyl]pyrrolidin-1-yl]prop-2-en-1-one], the IC50 is ≤ 0.1 µM.
On to `C=CC(=O)N1C[C@@H](n2nc(C#Cc3cc4nc(C)n(C)c4cc3Cl)c3c(N)nccc32)C[C@@H]1COC` [Example 97, 1-[(2R,4S)-4-[4-Amino-3-[2-(6-chloro-1,2-dimethyl-1,3-benzodiazol-5-yl)ethynyl]pyrazolo[4,3-c]pyridin-1-yl]-2-(methoxymethyl)pyrrolidin-1-yl]prop-2-en-1-one], for which the IC50 was ≤ 0.1 µM.
Turning to `C=CC(=O)N1C[C@@H](n2nc(C#Cc3cc4ncn(C(F)F)c4cc3F)c3c(N)ncnc32)C[C@@H]1COC` [Example 82, 1-[(2R,4S)-4-(4-Amino-3-[2-[1-(difluoromethyl)-6-fluoro-1,3-benzodiazol-5-yl]ethynyl]pyrazolo[3,4-d]pyrimidin-1-yl)-2-(methoxymethyl)pyrrolidin-1-yl]prop-2-en-1-one], the 50% inhibitory concentration (IC50) is ≤ 0.1 µM.
To `C=CC(=O)N1C[C@@H](n2nc(C#Cc3cc4ncn(CC)c4cc3Cl)c3c(N)ncnc32)C[C@@H]1COC` [Example 92, 1-[(2R,4S)-4-[4-Amino-3-[2-(6-chloro-1-ethyl-1,3-benzodiazol-5-yl)ethynyl]pyrazolo[3,4-d]pyrimidin-1-yl]-2-(methoxymethyl)pyrrolidin-1-yl]prop-2-en-1-one] belongs ≤ 0.1 µM; to `C=CC(=O)N1C[C@@H](n2cc(C#Cc3cc4nc(C)[nH]c4cc3Cl)c3c(N)ncnc32)C[C@@H]1COC` [Example 89, 1-[(2R,4S)-4-[4-Amino-5-[2-(6-chloro-2-methyl-1H-1,3-benzodiazol-5-yl)ethynyl]pyrrolo[2,3-d]pyrimidin-7-yl]-2-(methoxymethyl)pyrrolidin-1-yl]prop-2-en-1-one], ≤ 0.1 µM; to `C=CC(=O)N1C[C@@H](n2nc(C#Cc3ccc4nn(C)cc4c3)c3c(N)nccc32)C[C@@H]1COC` [Example 36, 1-[(2R,4S)-4-[4-amino-3-[2-(2-methylindazol-5-yl)ethynyl]pyrazolo[4,3-c]pyridin-1-yl]-2-(methoxymethyl)pyrrolidin-1-yl]prop-2-en-1-one], 0.1 to 1 µM.
With `C=CC(=O)N1C[C@@H](n2nc(C#Cc3cc4ncn(CC)c4c(F)c3Cl)c3c(N)ncnc32)C[C@@H]1CC#N` [Example 173, 2-[(2R,4S)-4-{4-Amino-3-[2-(6-chloro-1-ethyl-7-fluoro-1,3-benzodiazol-5-yl)ethynyl]pyrazolo[3,4-d]pyrimidin-1-yl}-1-(prop-2-enoyl)pyrrolidin-2-yl]acetonitrile], the 50% inhibitory concentration (IC50) is ≤ 0.1 µM.
To `C=CC(=O)N1C[C@@H](n2nc(C#Cc3cc4ncn(C5CC5)c4cc3F)c3c(N)ncnc32)C[C@@H]1COC` [Example 108, 1-[(2R,4S)-4-[4-Amino-3-[2-(1-cyclopropyl-6-fluoro-1,3-benzodiazol-5-yl)ethynyl]pyrazolo[3,4-d]pyrimidin-1-yl]-2-(methoxymethyl)pyrrolidin-1-yl]prop-2-en-1-one] belongs ≤ 0.1 µM; to `C=CC(=O)N1C[C@@H](n2nc(C#Cc3cc4nc(C)[nH]c4cc3Cl)c3c(N)ncnc32)C[C@@H]1COC` [Example 99, 1-[(2R,4S)-4-[4-Amino-3-[2-(6-chloro-2-methyl-1H-1,3-benzodiazol-5-yl)ethynyl]pyrazolo[3,4-d]pyrimidin-1-yl]-2-(methoxymethyl)pyrrolidin-1-yl]prop-2-en-1-one], ≤ 0.1 µM.
Take `C=CC(=O)N1C[C@@H](n2nc(C#Cc3cc4ncn(C(F)F)c4cc3F)c3c(N)nccc32)C[C@@H]1COC` [Example 83, 1-[(2R,4S)-4-(4-Amino-3-[2-[1-(difluoromethyl)-6-fluoro-1,3-benzodiazol-5-yl]ethynyl]pyrazolo[4,3-c]pyridin-1-yl)-2-(methoxymethyl)pyrrolidin-1-yl]prop-2-en-1-one]: the 50% inhibitory concentration (IC50) is ≤ 0.1 µM.
The same measure for `C=CC(=O)N1C[C@@H](n2nc(C#Cc3ccc4c(c3)ncn4C)c3c(N)nccc32)C[C@@H]1COC(F)(F)F` [Example 58, 1-((2R,4S)-4-(4-Amino-3-((1-methyl-1H-benzo[d]imidazol-5-yl)ethynyl)-1H-pyrazolo[4,3-c]pyridin-1-yl)-2-((trifluoromethoxy)methyl)pyrrolidin-1-yl)prop-2-en-1-one formate]: ≤ 0.1 µM; for `C=CC(=O)N1C[C@@H](n2cc(C#Cc3cc4ncn(C)c4cc3F)c3c(N)ncnc32)C[C@@H]1COC(F)(F)F` [Example 67, 1-((2R,4S)-4-(4-Amino-5-((6-fluoro-1-methyl-1H-benzo[d]imidazol-5-yl)ethynyl)-7H-pyrrolo[2,3-d]pyrimidin-7-yl)-2-((trifluoromethoxy)methyl)pyrrolidin-1-yl)prop-2-en-1-one]: ≤ 0.1 µM.
As to `C=CC(=O)N1C[C@@H](n2cc(C#Cc3c(Cl)cc4c(ncn4CC)c3F)c3c(N)ncnc32)C[C@@H]1COC` [Example 118, 1-1-[(2R,4S)-4-[4-Amino-5-[2-(6-chloro-1-ethyl-4-fluoro-1,3-benzodiazol-5-yl)ethynyl]pyrrolo[2,3-d]pyrimidin-7-yl]-2-(methoxymethyl)pyrrolidin-1-yl]prop-2-en-1-one], the IC50 was ≤ 0.1 µM.
As to `C=CC(=O)N1C[C@@H](n2nc(C#Cc3c(F)cc4c(cnn4C)c3F)c3c(N)ncnc32)C[C@@H]1COC` [Example 48, 1-((2R,4S)-4-(4-amino-3-((4,6-difluoro-1-methyl-1H-indazol-5-yl)ethynyl)-1H-pyrazolo[3,4-d]pyrimidin-1-yl)-2-(methoxymethyl)pyrrolidin-1-yl)prop-2-en-1-one], the IC50 is ≤ 0.1 µM.
